Literature values, collected in patent publication US20010004459A1, “Composition with sustained release of active principle, capable of forming a microemulsion” (priority 1998, published 2001).

Conditions: acidic pH (dissolution curve at pH 1.2, FIG. 2)

For COc1ccc2c(c1)c(CC(=O)O)c(C)n2C(=O)c1ccc(Cl)cc1 [indomethacin, Indomethacin], the “solubility at acidic pH” value is given as “insoluble”.
